Measurements: ChEMBL document CHEMBL1136154, “Anti-atherogenic effects of 3,4-Dihydroxy hydrocinnamides” (Bioorg Med Chem Lett, 2003)

How the values were obtained:
Assay type in all cases: functional, organism-based
Oryctolagus cuniculus [1] = species: Oryctolagus cuniculus; assay: (§1) HDL-cholesterol-fed rabbit
Oryctolagus cuniculus [2] = species: Oryctolagus cuniculus; assay: Triglyceride after 0 week of cholesterol-fed rabbit
Oryctolagus cuniculus [3] = species: Oryctolagus cuniculus; assay: (§2) Total cholesterol-fed rabbit
Oryctolagus cuniculus [4] = species: Oryctolagus cuniculus; assay: Triglyceride after 8 weeks of cholesterol-fed rabbit
Oryctolagus cuniculus [5] = species: Oryctolagus cuniculus; assay: as §1; remark: listed apart in the source
Oryctolagus cuniculus [6] = species: Oryctolagus cuniculus; assay: as §2; remark: listed apart in the source

SMILES	Plasma lipids (Oryctolagus cuniculus [1])	Plasma lipids (Oryctolagus cuniculus [2])	Plasma lipids (Oryctolagus cuniculus [3])	Plasma lipids (Oryctolagus cuniculus [4])	Plasma lipids (Oryctolagus cuniculus [5])	Plasma lipids (Oryctolagus cuniculus [6])
COC(=O)C(Cc1c[nH]c2ccccc12)NC(=O)CCc1ccc(O)c(O)c1 (configuration not stated)	98 mg/dL	43 mg/dL	50 mg/dL	104 mg/dL	32 mg/dL	1070 mg/dL
COC(=O)C(C)NC(=O)CCc1ccc(O)c(O)c1 (configuration not stated)	81 mg/dL	53 mg/dL	53 mg/dL	116 mg/dL	37 mg/dL	1080 mg/dL
